{"source": "a melting point compilation (Tetko et al.; mined from patent text by program, amines drawn as free bases though some values may be those of a salt)"}
{"units": {"melting point": "°C"}}
{"smiles": "CN1C(=O)c2c(n3ccnc3c3c2c2cccnc2n3C2OC(CO)C(O)C(O)C2O)C1=O", "note": "(centres undefined)", "melting point": 298}
{"smiles": "O=C(CC(=O)C1CC1)c1cccnc1", "melting point": "69 to 70"}
{"smiles": "CCCN(CCC)C(=O)CN(C(=O)CNC(=O)Nc1cccc(C)c1)c1ccccc1", "melting point": 182}
{"smiles": "CCN(CC)C(=O)n1cnc(S(=O)(=O)CC2CCC2)n1", "melting point": "113 to 116"}
{"smiles": "N#Cc1cccc(C2=Nc3ccc(C#Cc4ccccc4F)cc3NC(=O)C2)c1", "melting point": "213 to 214"}
{"smiles": "O=C(CN1CCN(c2cnccn2)CC1)N1CC=C(c2ccc(Cl)cc2)CC1", "melting point": "139 to 141"}
{"smiles": "O=C(NCCCl)NCc1cccnc1", "melting point": 95}
{"smiles": "Cc1c(C(=O)Cl)ccc(S(C)(=O)=O)c1C1=NOCC1", "melting point": "183 to 184"}
{"smiles": "CC(=O)OC1CSC(Oc2cncc(-c3cnoc3C)c2)C(OC(C)=O)C1OC(C)=O", "note": "(centres undefined)", "melting point": 127}
{"smiles": "O=S(=O)(c1cc(F)ccc1F)N1CCNc2ncc(I)cc21", "melting point": "187 to 188"}
{"smiles": "CC(C)[Si](Oc1ccc2c(c1)CN(Nc1ccccn1)C2)(C(C)C)C(C)C", "melting point": "95 to 96"}
{"smiles": "c1cc2nnnn2cc1C1CO1", "note": "(centres undefined)", "melting point": "108 to 110"}
{"smiles": "O=C1OC2(CCCCC2)OC(=O)C12CC2", "melting point": "134 to 135"}
{"smiles": "CCn1cc(C(=O)NO)c(=O)c2ccc(-c3ccncc3)cc21", "melting point": 245}
{"smiles": "Brc1n[nH]c2ccccc12", "melting point": 136}
{"smiles": "CC1(O)CC(=O)OC(C=Cc2ccccc2)C1(C)Br", "note": "(centres undefined)", "melting point": "121 to 123"}
{"smiles": "O=C(CNc1ccccc1)Nc1ccccc1C(=O)O", "melting point": "192 to 193"}
{"smiles": "CCCCOC(=O)c1cc2cccc(OC)c2[nH]1", "melting point": "66 to 69"}
{"smiles": "O=C(Oc1c(F)c(F)c(F)c(F)c1F)[C@H]1CCC(=O)N1C(=O)OCc1ccccc1", "melting point": "81 to 82"}
{"smiles": "CCC1(C)OC(c2ccc(S(C)(=O)=O)cc2)=C(c2ccc(C(C)=O)cc2)C1=O", "note": "(centres undefined)", "melting point": "147 to 148"}
{"smiles": "CC(=O)NC[C@H]1CN(c2ccc(N3CCC(O)(CNC4CC4)CC3)c(F)c2)C(=O)O1", "melting point": "160 to 162"}
{"smiles": "CCCc1nc(O)c(-c2ccc(C)cc2)c(O)n1", "melting point": "> 300"}
{"smiles": "Cc1cccc(-c2[nH]c(C(C)C)nc2-c2cccc(-c3ccc([N+](=O)[O-])cc3)c2)n1", "melting point": "95 to 105"}
{"smiles": "Cc1nc(N)c2nc(CO)n(NC3CCC3)c2c1C", "melting point": "211 to 213"}
{"smiles": "Cc1cc(-c2ccc(Cl)cc2)nc(-c2cccc(-c3cccc(S(N)(=O)=O)c3)c2)n1", "melting point": 221}
{"smiles": "O=C1c2ccc([N+](=O)[O-])cc2C(=O)N1C1CCN(Cc2ccccc2)CC1", "melting point": "240 to 242"}
{"smiles": "CCCCn1nc(C)c(C(=O)O)c1Cc1ccc(-c2ccccc2S(=O)(=O)NC(=O)OC(C)(C)C)cc1", "melting point": "92 to 96"}
{"smiles": "COCCCNC1(c2ccccc2Cl)C(=O)N(S(=O)(=O)c2ccc3c(c2)CCN3C(=O)OC)c2ccc(Cl)cc21", "note": "(centres undefined)", "melting point": 98}
{"smiles": "CCOCc1nc2c(N)nc3cc(OCCCN4CCCC4=O)ccc3c2n1CCCCN1CCCS1(=O)=O", "melting point": "142 to 144"}
{"smiles": "CCOC(=O)CCc1cn(CC(=O)N(C)CCc2ccccc2)c2ccc(OCc3ccccc3)cc12", "melting point": "81 to 83"}
{"smiles": "CCCn1c(=O)c2[nH]c([C@H](C)c3ccccc3)nc2n(CCC)c1=O", "melting point": "136 to 137"}
{"smiles": "Cc1oc2cc(C3CC(=O)N(C4CC4)C(=O)C3)ccc2c1C", "melting point": "180 to 182"}
{"smiles": "Cc1c(NC(=O)CC(C)(C)C)c(C)c2c(c1-c1ccc[nH]1)OCC2c1ccc(C(C)C)cc1", "note": "(centres undefined)", "melting point": "188 to 190"}
{"smiles": "BrCc1cc(-c2ccccc2)no1", "melting point": 87}
{"smiles": "O=S(=O)(c1ccc(Cl)cc1)C(c1ccc(C2OCCO2)cn1)c1cc(F)ccc1F", "note": "(centres undefined)", "melting point": "167 to 168"}
{"smiles": "CCOC(=O)C(=CNc1nncs1)C(=O)c1cc(F)c(Cl)nc1Cl", "melting point": "137 to 140"}
{"smiles": "CC1Cc2c(NN)c(Cl)cc(Cl)c2O1", "note": "(centres undefined)", "melting point": "59 to 64"}
{"smiles": "CN(C)C=Cc1cc(Cl)c([N+](=O)[O-])cc1Cl", "melting point": "173 to 175"}
{"smiles": "COc1ccc(C(=O)Nc2ccccc2)cc1NS(=O)(=O)c1ccc(C(=O)O)cc1", "melting point": "212 to 214"}
